The values that follow come from patent publication US9763934B2, “Synergistic effect of poloxamer-based composition and itraconazole on fungus and yeast” (Professional Compounding Centers of America (PCCA), priority 2014, dated 2017).

The assay relates to C. albicans ATCC 90028 biofilm. Nature of the assay: Antifungal biofilm susceptibility testing (MBIC), NCCLS M27-A broth microdilution, CellTiter 96 viability readout. Format: cell-based, Candida albicans. The procedure: Materials: Itraconazole EP Micronized (lot number C149307) and PCCA Formula #10342 (4 g of Itraconazole EP Micronized +37.574 g of Poloxamer composition) were provided by PCCA (Houston, Tex., USA) as powders. Itraconazole and PCCA Formula #10342 were prepared on the day of the assay. Fluconazole and amphotericin B were obtained as powders and stored at 4° C. […] Strain: Candida albicans isolate ATCC 90028 was obtained from American Type Culture Collection (Manassas, Va.), and used in the course of this study. Methods: To determine antimicrobial activity of itraconazole and micronized poloxamer composition 202 against biofilms of Candida albicans, an antifungal biofilm susceptibility testing was developed in conditions where a Minimum Biofilm Inhibitory Concentration (MBIC) of itraconazole in a micronized poloxamer composition 202, micronized poloxamer excipient, itraconazole, fluconazole and amphotericin B was measured for the C. albicans biofilm according to the NCCLS M27-A broth microdilution method (NCCLS, 1997). The testing medium used for growing was RPMI 1640 (American Biorganics, Inc., […].) supplemented with L-glutamine (Sigma Aldrich®). […] Cell viability was determined by using CellTiter 96® Non-Radioactive Cell Proliferation Assay (Promega, 2013).
On the technique in general: Broth dilution looks for growth in wells or tubes with falling amounts of substance.

The molecule `C[C@@H]1[C@H](O)[C@@H](C)/C=C/C=C/C=C/C=C/C=C/C=C/C=C/[C@H](O[C@@H]2O[C@H](C)[C@@H](O)[C@H](N)[C@@H]2O)C[C@@H]2O[C@](O)(C[C@@H](O)C[C@@H](O)[C@H](O)CC[C@@H](O)C[C@@H](O)CC(=O)O[C@H]1C)C[C@H](O)[C@H]2C(=O)O` [Amphotericin B, amphotericin B] came in with an MBIC of 0.5 µg/mL. Also, for the setting “48 h at 35° C., lowest concentration giving 50% reduction of fungal growth, combination value expressed as concentration of itraconazole”, the “Minimum Biofilm Inhibitory Concentration” value amounted to 0.5 µg/mL.
